Patent US20240109972A1, “ANTIBODY AND TAXANE COMBINATION THERAPY” (Genmab A/S, priority 2020, published 2024)

Tested on: solid malignant tumors
Experiment: GEN1046 Phase I dose escalation (NCT03917381), response by RECIST v1.1
Type: in vivo, human
Excerpt: The resistance to, failure to respond to and/or relapse from treatment with a binding agent of the invention and/or other therapeutic agent(s) may be determined according to the Response Evaluation Criteria In Solid Tumors; version 1.1 (RECIST Criteria v1.1).
The “best overall response” is the best response recorded from the start of the treatment until disease progression/recurrence (the smallest measurements recorded since the treatment started will be used as the reference for PD). Subjects with CR or PR are considered to be objective response. Subjects with CR, PR or SD are considered to be in disease control. Subjects with NE are counted as non-responders. […]
Clinical trial on GCT1046-01 (ClinicalTrials.gov Identifier: NCT03917381) was designed as a two-part trial, including an ongoing dose escalation part and a planned expansion part.
The trial consists of 2 parts; a First-in-Human (FIH) dose escalation (Phase I) and an expansion (Phase 11a).
For dose escalation, subject was required to be a man or […] and was required to have measurable disease according to RECIST 1.1.

[1] = six patients with NSCLC, prior checkpoint immunotherapy

Substance: GEN1046: PD-L1×4-1BB bispecific antibody: PD-L1-547-FEAL combined with CD137-009-HC7LC2-FEAR (SEQ ID NOs: 1, 5, 21, 19; 8, 12, 22, 20)
- Confirmed PD (Progressive Disease), patients (800 mg (N 9), Oct. 12, 2020): 2
- Confirmed PR (Partial Response), patients (800 mg (N 9), Oct. 12, 2020): 0
- Confirmed SD (Stable Disease), % of patients (800 mg (N 9), Oct. 12, 2020): 55.6%
- Confirmed SD (Stable Disease), patients (800 mg (N 9), Oct. 12, 2020): 5
- Disease Control (PR + PR + SD) Rate, % (800 mg (N 9), Oct. 12, 2020): 55.6%
- Disease Control (PR + PR + SD) Rate, patients (800 mg (N 9), Oct. 12, 2020): 5
- NE (Not Evaluable), % of patients (800 mg (N 9), Oct. 12, 2020): 22.2%
- NE (Not Evaluable), patients (800 mg (N 9), Oct. 12, 2020): 2
- Objective Response (CR + PR) Rate, patients (800 mg (N 9), Oct. 12, 2020): 0
- PD (Progressive Disease), % of patients (800 mg (N 9), Oct. 12, 2020): 22.2%
- PD (Progressive Disease), patients (800 mg (N 9), Oct. 12, 2020): 2
- PR (Partial Response), patients (800 mg (N 9), Oct. 12, 2020): 0
- CR (Complete Response), patients (1200 mg (N 4), Oct. 12, 2020): 0
- Confirmed CR (Complete Response), patients (1200 mg (N 4), Oct. 12, 2020): 0
- Confirmed Disease Control (PR + PR + SD) Rate, % (1200 mg (N 4), Oct. 12, 2020): 75.0%
- Confirmed Disease Control (PR + PR + SD) Rate, patients (1200 mg (N 4), Oct. 12, 2020): 3
- Confirmed NE (Not Evaluable), patients (1200 mg (N 4), Oct. 12, 2020): 0
- Confirmed Objective Response (CR + PR) Rate, patients (1200 mg (N 4), Oct. 12, 2020): 0
- Confirmed PD (Progressive Disease), % of patients (1200 mg (N 4), Oct. 12, 2020): 25.0%
- Confirmed PD (Progressive Disease), patients (1200 mg (N 4), Oct. 12, 2020): 1
- Confirmed PR (Partial Response), patients (1200 mg (N 4), Oct. 12, 2020): 0
- Confirmed SD (Stable Disease), % of patients (1200 mg (N 4), Oct. 12, 2020): 75.0%
- Confirmed SD (Stable Disease), patients (1200 mg (N 4), Oct. 12, 2020): 3
- Disease Control (PR + PR + SD) Rate, % (1200 mg (N 4), Oct. 12, 2020): 75.0%
- Disease Control (PR + PR + SD) Rate, patients (1200 mg (N 4), Oct. 12, 2020): 3
- NE (Not Evaluable), patients (1200 mg (N 4), Oct. 12, 2020): 0
- Objective Response (CR + PR) Rate, patients (1200 mg (N 4), Oct. 12, 2020): 0
- PD (Progressive Disease), % of patients (1200 mg (N 4), Oct. 12, 2020): 25.0%
- PD (Progressive Disease), patients (1200 mg (N 4), Oct. 12, 2020): 1
- PR (Partial Response), patients (1200 mg (N 4), Oct. 12, 2020): 0
- Partial responses, patients (ICI pre-treated NSCLC): 2
- CR (Complete Response), patients (Total (N 61), Oct. 12, 2020): 0
- Confirmed CR (Complete Response), patients (Total (N 61), Oct. 12, 2020): 0
- Confirmed Disease Control (PR + PR + SD) Rate, % (Total (N 61), Oct. 12, 2020): (65.6%)
- Confirmed Disease Control (PR + PR + SD) Rate, patients (Total (N 61), Oct. 12, 2020): 40
- Confirmed NE (Not Evaluable), % of patients (Total (N 61), Oct. 12, 2020): (11.5%)
- Confirmed NE (Not Evaluable), patients (Total (N 61), Oct. 12, 2020): 7
- Confirmed Objective Response (CR + PR) Rate, % (Total (N 61), Oct. 12, 2020): (3.3%)
- Confirmed Objective Response (CR + PR) Rate, patients (Total (N 61), Oct. 12, 2020): 2
- Confirmed PD (Progressive Disease), % of patients (Total (N 61), Oct. 12, 2020): (23.0%)
- Confirmed PD (Progressive Disease), patients (Total (N 61), Oct. 12, 2020): 14
- Confirmed PR (Partial Response), % of patients (Total (N 61), Oct. 12, 2020): (3.3%)
- Confirmed PR (Partial Response), patients (Total (N 61), Oct. 12, 2020): 2
- Confirmed SD (Stable Disease), % of patients (Total (N 61), Oct. 12, 2020): (62.3%)
- Confirmed SD (Stable Disease), patients (Total (N 61), Oct. 12, 2020): 38
- Disease Control (PR + PR + SD) Rate, patients (Total (N 61), Oct. 12, 2020): 40
- NE (Not Evaluable), % of patients (Total (N 61), Oct. 12, 2020): (11.5%)
- NE (Not Evaluable), patients (Total (N 61), Oct. 12, 2020): 7
- Objective Response (CR + PR) Rate, % (Total (N 61), Oct. 12, 2020): (6.6%)
- Objective Response (CR + PR) Rate, patients (Total (N 61), Oct. 12, 2020): 4
- PD (Progressive Disease), % of patients (Total (N 61), Oct. 12, 2020): (23.0%)
- PD (Progressive Disease), patients (Total (N 61), Oct. 12, 2020): 14
- PR (Partial Response), % of patients (Total (N 61), Oct. 12, 2020): (6.6%)
- BOR Complete Response, (percent) (Total (n = 30), 3 Feb. 2020): (0)
- BOR Complete Response, patients (Total (n = 30), 3 Feb. 2020): 0
- BOR Partial Response, (percent) (Total (n = 30), 3 Feb. 2020): (10)
- BOR Partial Response, patients (Total (n = 30), 3 Feb. 2020): 3
- BOR Progressive Disease, (percent) (Total (n = 30), 3 Feb. 2020): (26.6)
- BOR Progressive Disease, patients (Total (n = 30), 3 Feb. 2020): 8
- BOR Stable Disease, (percent) (Total (n = 30), 3 Feb. 2020): (63.3)
- BOR Stable Disease, patients (Total (n = 30), 3 Feb. 2020): 19
- Partial responses, patients (ovarian cancer): 1
- Patients who maintained stable disease [1]: two
- Patients with progressive disease [1]: two
- Patients with unconfirmed PR [1]: two
- Partial responses, patients (triple negative breast cancer): 1
